Test results as given in ChEMBL document CHEMBL3272317, “Application of SCAP to drug design. 1. Prediction of octanol-water partition coefficients using solvent-dependent conformational analyses” (J Med Chem, 1976).

Assay: Octanol-water partition coefficient, log P of the compound

Structure (SMILES) | logP
CCCCCl [BUTYL CHLORIDE] | 2.39
CC(C)(C)CO | 1.36
CCC(C)=O [BUTANONE] | 0.29
OC1CCCCC1 [CYCLOHEXANOL] | 1.23
CCC#N [PROPIONITRILE] | 0.16
CCCc1ccccc1 | 3.68
Nc1ccccc1 [ANILINE] | 0.9
